Experiments:
[1] = target: T1, recombinant cGAS (aa147-522) (Homo sapiens, UniProt Q8N884); test: In vitro assay for inhibition of cGAS activity (ATP consumption, Kinase Glo); assay type: biochemical; conditions: 37° C. 20 minutes, read-out: Activity (Inhibition of cGAS enzyme activity in vitro, IC50)
T1 construct: recombinant cGAS (aa147-522); His6-SUMO (N, cleaved yes); made in house; host or cells: E. coli BL21/pLys
Procedure: cDNA encoding full-length or amino acids 147-520 of human cGAS is inserted into a modified pET28a vector containing an in-frame His6-SUMO tag. The E. coli strain BL21/pLys harboring the plasmid is induced with 0.5 mM IPTG at 18° C. overnight. His6-SUMO tag was removed by a SUMO proease following purification of the HiS-SUMO-cGAS as described previously (Sun et al, 2013, Science 339, 786).
A40 μL mixture containing 1.5 ng/μL of recombinant cGAS (aa147-522) and serial dilutions of a test compound or DMSO was added to a 96-well plate and incubated at 37° C. for 20 minutes. At the end of reaction, 20 μL of Kinase Glo (Promega) was added and chemiluminescence measured with a luminometer. Inhibitory effect of a compound is evaluated by plotting percentage of ATP consumption against logarithm of compound concentrations. IC50 value was calculated using Graphpad (Sigma).

[2] = system: RIG-I-MAVS pathway; test: Specificity assay: ISRE reporter THP1 cells infected with Sendai Virus (SeV); assay type: cell-based; conditions: Homo sapiens, THP-1; ISRE-Gaussia luciferase reporter THP1 cells infected with Sendai Virus (SeV) at 50 Unit/mL
Procedure: (§1) A reporter THP1 cell line harboring a gene encoding Gaussia Luciferase under the control of 5 tandem repeats of interferon-stimulated response elements (ISRE) was used to test inhibition of cGAS activity by synthetic compounds in human cells. These cells were plated on 96-well plates at 0.3×10^6/well and incubated with various concentrations of compounds or DMSO for 5 min, followed by transfection of 2 μg/mL of ISD (Interferon Stimulatory DNA, a 45 bp DNA oligo) or mock transfected using lipofectamine 2000 (Life Technology) method, according to manufacturer's instructions. 16 hours later, 15 μL of the media from each well is transferred to a new plate, 50 μL of solution containing 50 mM Hepes-NaOH, 50 mM NaCl, 10 mM EDTA, 1 μM of coeleanterazine was added to each well and luminescence was measured immediately. Fold increase in luminescence compared to mock transfection is plotted against concentrations of each compound, and IC50 is calculated using Graphpad. To evaluate the specificity of a compound, the same procedure was performed except that cells were transfected with 2 μg/mL poly(I:C) or infected with Sendai Virus (SeV) at 50 Unit/mL, which are known to activate the RIG-I-MAVS pathway. A specific inhibitory compound should inhibit interferon induction by DNA but have minimal effect on poly(I:C) or Sendai virus induced interferon reporter gene expression.

[3] = system: cGAS activity in THP1 cells; test: Cellular assay: ISRE-Gaussia luciferase reporter THP1 cells transfected with ISD (Interferon Stimulatory DNA); assay type: cell-based; conditions: Homo sapiens, THP-1; ISRE-Gaussia luciferase reporter THP1 cells transfected with 2 μg/mL ISD, 16 hours; read-out: THP1-ISD (Inhibition of cGAS activity in THP1 cells, IC50)
Procedure: as §1

T1 sequence (Q8N884 147-522): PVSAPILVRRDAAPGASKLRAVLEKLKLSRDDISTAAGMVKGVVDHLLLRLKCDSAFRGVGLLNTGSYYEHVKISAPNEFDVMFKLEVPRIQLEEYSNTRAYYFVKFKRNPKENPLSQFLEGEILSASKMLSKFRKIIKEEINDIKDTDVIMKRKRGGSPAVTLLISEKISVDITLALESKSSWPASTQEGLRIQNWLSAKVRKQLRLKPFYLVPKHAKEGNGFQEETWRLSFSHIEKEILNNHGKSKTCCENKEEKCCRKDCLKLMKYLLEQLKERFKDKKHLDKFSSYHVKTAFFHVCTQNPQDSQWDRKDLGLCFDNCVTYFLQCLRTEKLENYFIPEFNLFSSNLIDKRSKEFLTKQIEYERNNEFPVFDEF

Row | IC50 [1] | IC50 [3] | SMILES | IC50 [2]
1 | ≤ 0.5 µM | 2.5 to 10 µM | CN1C(=O)S/C(=C\c2cc(OCc3cnc(Cl)nc3N)c(O)c(F)c2Br)C1=O [ExA19] | –
2 | ≤ 0.5 µM | 2.5 to 10 µM | Cc1ncc(COc2cc(/C=C3\Sc4ncccc4C3=O)c(Br)cc2O)cn1 [Ex114] | –
3 | ≥ 10 µM | 2.5 to 10 µM | CN1C(=O)S/C(=C\c2cc(O)c(O)cc2Br)C1=O [Ex11] | –
4 | 0.5 to 10 µM | 2.5 to 10 µM | CCN1C(=O)S/C(=C\c2cc(OC)c(O)cc2Br)C1=O [Ex39] | –
5 | ≤ 0.5 µM | 2.5 to 10 µM | O=C1/C(=C/c2cc(OCc3cccnc3)c(O)cc2Br)Sc2ncccc21 [Ex113] | –
6 | 0.5 to 10 µM | ≤ 2.5 µM | Nc1ncc(COc2cc(/C=c3\sc4nccn4c3=O)c(Br)cc2O)cn1 [ExA11] | –
7 | ≤ 0.5 µM | 2.5 to 10 µM | CC(Oc1cc(/C=C2\Sc3ncccc3C2=O)c(Br)cc1O)c1cnc(NCCO)nc1 (centres unmarked) [ExA9] | –
8 | ≤ 0.5 µM | 2.5 to 10 µM | COc1cc(/C=c2\sc3nccn3c2=O)c(Br)cc1O [Ex16] | –
9 | 0.5 to 10 µM | ≤ 2.5 µM | COc1cc(/C=C2\Sc3ccccc3C2=O)c(Br)cc1O [Ex44] | –
10 | ≤ 0.5 µM | ≤ 2.5 µM | COc1cc(/C=C2\SC(=O)N(C)C2=O)c(Cl)cc1O [Ex30] | –
11 | 0.5 to 10 µM | ≤ 2.5 µM | CN1C(=O)S/C(=C\c2cc(OCc3ccncc3)c(O)cc2Br)C1=O [Ex53] | –
12 | ≤ 0.5 µM | 2.5 to 10 µM | Nc1ncc(COc2cc(/C=C3\Sc4ncccc4C3=O)c(Br)cc2O)c(C2CC2)n1 [Ex117] | –
13 | ≤ 0.5 µM | 2.5 to 10 µM | CN1C(=O)S/C(=C\c2cc(OCc3cccnc3)c(O)c(F)c2Br)C1=O [Ex106] | –
14 | 0.5 to 10 µM | 2.5 to 10 µM | C#CCOc1cc(/C=C2\SC(=O)N(C)C2=O)c(Br)cc1O [Ex33] | –
15 | ≤ 0.5 µM | ≤ 2.5 µM | Cc1nc(N)ncc1COc1cc(/C=C2\Sc3ncccc3C2=O)c(Br)cc1O [Ex116] | –
16 | ≤ 0.5 µM | ≤ 2.5 µM | CCOc1cc(/C=C2\SC(=O)N(C)C2=O)c(Br)cc1O [Ex32] | –
17 | 0.5 to 10 µM | ≥ 10 µM | CC(Oc1cc(/C=c2\sc3nccn3c2=O)c(Br)c(F)c1O)c1cnc(N)nc1 (centres unmarked) [ExA12] | –
18 | ≥ 10 µM | 2.5 to 10 µM | COc1cc(/C=C2\SC(=O)N(C)C2=O)c(Br)cc1NS(=O)(=O)c1ccccn1 [Ex21] | –
19 | ≤ 0.5 µM | 2.5 to 10 µM | COc1cc(/C=C2\SC(=S)N(C)C2=O)c(Br)cc1O [Ex38] | –
20 | ≤ 0.5 µM | 2.5 to 10 µM | CC(Oc1cc(/C=C2\Sc3ncc(F)cc3C2=O)c(Br)c(F)c1O)c1cnc(N)nc1 (centres unmarked) [ExA13] | –

Row | IC50 [1] | IC50 [3] | SMILES | IC50 [2]
21 | 0.5 to 10 µM | ≤ 2.5 µM | COc1cc(/C=C2\SC(=O)N(C)C2=O)c(Br)cc1NS(=O)(=O)c1cnc(N)s1 [Ex61] | –
22 | ≤ 0.5 µM | 2.5 to 10 µM | CCOc1cc(/C=C2\Sc3ncccc3C2=O)c(Br)cc1O [Ex112] | –
23 | ≤ 0.5 µM | ≥ 10 µM | CN1C(=O)S/C(=C\c2cc(OCc3cnc([S+](C)[O-])nc3N)c(O)c(F)c2Br)C1=O (centres unmarked) [ExA14] | –
24 | 0.5 to 10 µM | 2.5 to 10 µM | CN1C(=O)S/C(=C\c2cc(OCc3cnc(NCc4cccnc4)nc3)c(O)c(F)c2Br)C1=O [Ex189] | –
25 | ≤ 0.5 µM | ≤ 2.5 µM | CN1C(=O)S/C(=C\c2cc(OCCc3cnc(N)nc3)c(O)cc2Br)C1=O [Ex82] | –
26 | ≤ 0.5 µM | 2.5 to 10 µM | CC(Oc1cc(/C=C2\Sc3ncccc3C2=O)c(Br)c(F)c1O)c1cnc(N)nc1 (centres unmarked) [Ex124] | –
27 | ≤ 0.5 µM | 2.5 to 10 µM | O=C1/C(=C/c2cc(OCc3cnc(Cl)nc3)c(O)cc2Br)Sc2ncccc21 [Ex115] | –
28 | 0.5 to 10 µM | 2.5 to 10 µM | CN1C(=O)S/C(=C\c2cc(OCC(=O)c3cnc(N)nc3)c(O)c(F)c2Br)C1=O [ExA10] | –
29 | 0.5 to 10 µM | ≥ 10 µM | CC(Oc1cc(/C=C2\SC(=O)N(C)C2=O)c(Br)c(F)c1O)c1cncnc1N (centres unmarked) [ExA18] | –
30 | ≤ 0.5 µM | 2.5 to 10 µM | Cc1ncc(COc2cc(/C=C3\SC(=O)N(C)C3=O)c(Br)c(F)c2O)c(N)n1 [ExA5] | –
31 | 0.5 to 10 µM | 2.5 to 10 µM | CN1C(=O)S/C(=C\c2cc(OCc3cnc(Cl)nc3)c(O)c(F)c2Br)C1=O [Ex107] | –
32 | ≤ 0.5 µM | ≥ 10 µM | CN1C(=O)S/C(=C\c2cc(OCc3cncnc3N)c(O)c(F)c2Br)C1=O [ExA17] | –
33 | ≤ 0.5 µM | 2.5 to 10 µM | CN1C(=O)S/C(=C\c2cc(OCc3cncnc3)c(O)c(F)c2Br)C1=O [Ex185] | –
34 | ≥ 10 µM | – | CC(C)c1cc(/C=C2\Sc3ncccc3C2=O)c(Br)cc1O [ExB19] | –
35 | 0.5 to 10 µM | – | COc1cc(/C=C2\Sc3ncccc3C2=O)c(C)cc1O [Ex76] | –
36 | ≤ 0.5 µM | – | CCc1cc(/C=C2\Sc3ncccc3C2=O)c(Br)cc1O [Ex79] | –
37 | ≥ 10 µM | – | C/N=C1/S/C(=C\c2cc(OC)c(O)cc2Br)C(=O)N1C [ExB22] | –
38 | 0.5 to 10 µM | – | CN1C(=O)S/C(=C\c2cc(OCc3cnc(O)nc3)c(O)cc2Br)C1=O [Ex217] | –
39 | 0.5 to 10 µM | – | CNc1ncc(C(C)Oc2cc(/C=C3\SC(=O)N(C)C3=O)c(Br)c(F)c2O)cn1 (centres unmarked) [Ex111] | –
40 | ≤ 0.5 µM | 2.5 to 10 µM | COc1cc(/C=C2\Sc3ncccc3C2=O)c(Br)cc1O [Ex45] | –

Row | IC50 [1] | IC50 [3] | SMILES | IC50 [2]
41 | 0.5 to 10 µM | 2.5 to 10 µM | CN1C(=O)S/C(=C\c2cc(OCc3cccc4[nH]ccc34)c(O)cc2Br)C1=O [Ex67] | –
42 | ≤ 0.5 µM | 2.5 to 10 µM | CN1C(=O)S/C(=C\c2cc(OCc3cccnc3)c(O)cc2Br)C1=O [Ex90] | –
43 | 0.5 to 10 µM | – | CSc1ncc(COc2cc(/C=C3\SC(=O)N(C)C3=O)c(Br)cc2O)c(Cl)n1 [Ex98] | –
44 | 0.5 to 10 µM | – | CN1C(=O)S/C(=C\c2cc(Oc3ccc([N+](=O)[O-])nc3)c(O)cc2Br)C1=O [Ex102] | –
45 | 0.5 to 10 µM | – | COc1cc(/C=C2\SC(=O)N(C)C2=O)c(Br)cc1Oc1ccncc1 [Ex202] | –
46 | 0.5 to 10 µM | – | CSc1ccc(CCc2cc(/C=C3\SC(=O)N(C)C3=O)c(Br)cc2O)cc1 [ExB15] | –
47 | 0.5 to 10 µM | – | CC(Oc1cc(/C=C2\SC(=O)N(C)C2=O)c(Br)c(F)c1Oc1cnc(N)s1)c1cnc(N)nc1 (centres unmarked) [ExB10] | –
48 | ≥ 10 µM | – | CN1C(=O)S/C(=C\c2cc(Oc3ccc(-c4ccccn4)cc3)c(O)cc2Br)C1=O [ExB26] | –
49 | ≤ 0.5 µM | – | CN1C(=O)S/C(=C\c2cc(OCc3cnc(-c4ccncc4)nc3)c(O)cc2Br)C1=O [Ex146] | –
50 | ≤ 0.5 µM | – | CN1C(=O)S/C(=C\c2cc(OCCc3cnc(N)nc3N)c(O)c(F)c2Br)C1=O [ExB32] | –
51 | 0.5 to 10 µM | – | CC(Oc1cc(/C=C2\SC(=O)N(C)C2=O)c(Br)cc1O)c1cncnc1 (centres unmarked) [Ex103] | –
52 | ≥ 10 µM | – | CN1C(=O)S/C(=C\c2cc(Oc3cccc4c3COCC4)c(O)cc2Br)C1=O [ExB27] | –
53 | 0.5 to 10 µM | – | COc1nc(S(C)(=O)=O)ncc1COc1cc(/C=C2\SC(=O)N(C)C2=O)c(Br)cc1O [Ex220] | –
54 | 0.5 to 10 µM | – | CN1C(=O)S/C(=C\c2cc(OCc3ccn(Cc4ccccc4)c(=O)c3)c(O)cc2Br)C1=O [Ex91] | –
55 | 0.5 to 10 µM | – | CN1C(=O)S/C(=C\c2cc3cc[nH]c3cc2Br)C1=O [Ex66] | –
56 | 0.5 to 10 µM | – | COc1cc(/C=C2\Sc3nccnc3C2=O)c(Br)cc1O [Ex50] | –
57 | ≤ 0.5 µM | – | C/C(=C1/SC(=O)NC1=O)c1ccncc1 [Ex12] | –
58 | 0.5 to 10 µM | – | COc1cc(/C=C2\SC(=O)N(C)C2=O)c(Br)cc1NS(=O)(=O)C(F)(F)F [Ex60] | –
59 | ≥ 10 µM | – | CN1C(=O)S/C(=C\c2cc(OCc3cncc(NC(=O)c4ccncc4)c3)c(O)cc2Br)C1=O [Ex225] | –

Row | SMILES | IC50 [1] | IC50 [3] | IC50 [2]
60 | CN1C(=O)S/C(=C\c2cc(OCc3ncc(N)cn3)c(O)cc2Br)C1=O [Ex139] | 0.5 to 10 µM | 2.5 to 10 µM | ≥ 10 µM
61 | Cc1ncc(COc2cc(/C=C3\Sc4ncccc4C3=O)c(Br)c(F)c2O)cn1 [ExA4] | ≤ 0.5 µM | ≤ 2.5 µM | ≥ 10 µM
62 | CN1C(=O)S/C(=C\c2cc(OCc3cnc(N)nc3)c(O)cc2Br)C1=O [Ex147] | ≤ 0.5 µM | ≤ 2.5 µM | ≥ 10 µM
63 | COCCNc1ncc(COc2cc(/C=C3\SC(=O)N(C)C3=O)c(Br)c(F)c2O)cn1 [Ex153] | ≤ 0.5 µM | 2.5 to 10 µM | ≥ 10 µM
64 | [2H]C([2H])(Oc1cc(/C=C2\SC(=O)N(C)C2=O)c(Br)cc1O)c1cnc(N)nc1 [ExB35] | ≤ 0.5 µM | ≤ 2.5 µM | ≥ 10 µM

From patent US12065416B2, “cGAS antagonist compounds” (IMMUNESENSOR THERAPEUTICS, INC., priority 2016, dated 2024)
